The values that follow come from US20240358842A1, “PROTEIN STABILIZING COMPOUNDS CONTAINING USP7 LIGANDS” (Stablix, Inc., priority 2021, published 2024).

Where two headings read alike, the source gives them in different places.

One experiment deals with USP7 (Homo sapiens, UniProt Q93009). In words: Ub-Rho cleavage assay. Type of experiment: biochemical. To be noted: Ub-Rho substrate, recombinant USP7; read-out: Ub (Rho) USP7.1 (IC50). As to the method: All fluorescence measurements were performed on a Molecular Devices FlexStation3 with excitation at 480 nm and emission 540 nm, PMT Gain: Medium, Flash Number: 10. […] Assay buffer for all measurements was 50 mM HEPES, 100 mM NaCl, 0.5 mM EDTA, 1 mM TCEP, 0.1 mg/ml BSA, 0.01% Tween-20, pH 7.8. […] Serial dilutions were made with a Mosquito HTS (SPT Labtech) nanoliter liquid handler. 200 nL of each compound in duplicate or DMSO control were transferred to the assay plate. The first two columns served as positive controls. 9.8 μl per well of USP7 working solution was added to the assay plate. Compound+Protein was incubated for 25 min at 25° C. 10 uL of Ub-Rho substrate was added per well and incubated for an additional 15 min at 25° C. Fluorescence was then measured. Percent response relative to DMSO controls was calculated in GraphPad or Scinamic, and the data was fitted to a non-linear regression to determine IC50 values.

A further experiment concerns the target T1, USP7 CD + UBL 1-5 (Homo sapiens, UniProt Q93009).
T1 construct: USP7 CD +
The experiment is described as follows: Surface plasmon resonance assay (SPR). The class given is binding. As to the method:
The surface plasmon resonance experiments were performed using a Cytiva (formerly GE Healthcare) Biacore 8K equipped with a Series S Sensor Chip SA. The ligands were immobilized via a biotin-modified biotin acceptor peptide. USP7 Ligands were diluted in running buffer (HBS-P+2% DMSO; 10 mM HEPES, pH 7.4, 150 mM NaCl, 1 mM DTT, 0.05% P20, 2% DMSO) to 100 μg/mL and injected at […] until a density between 500-10,000 RU was reached on flow-cell two of each channel, and flow cell one was left blank to serve as a reference surface. Both surfaces were washed until a stable baseline was achieved then 30 startup cycles to condition the surface. To collect kinetic and steady-state binding data, the small molecule analytes were prepared in three-fold dilution series in HBS-P+2% DMSO running buffer. Analytes were injected over both flow cells at a flow rate of […] at 25° C. The complex was allowed to associate for 60 seconds and dissociate for 300 seconds. Data were collected at 10 Hz. The data were fit to a simple 1:1 interaction model global data analysis within Cytiva Biacore Insight Evaluation Software.
Background: In SPR one partner is held on a chip, and binding of the other changes the refractive index at the surface.

[1] abbreviates: steady-state KD, read-out: SPR USP7 CD + UBL 1-5 (KD_ss).
Setting [2] is: kinetic KD, read-out: SPR USP7 CD + UBL 1-5 (KD_kinetic).

T1 sequence (Q93009 208-1102 limits assumed): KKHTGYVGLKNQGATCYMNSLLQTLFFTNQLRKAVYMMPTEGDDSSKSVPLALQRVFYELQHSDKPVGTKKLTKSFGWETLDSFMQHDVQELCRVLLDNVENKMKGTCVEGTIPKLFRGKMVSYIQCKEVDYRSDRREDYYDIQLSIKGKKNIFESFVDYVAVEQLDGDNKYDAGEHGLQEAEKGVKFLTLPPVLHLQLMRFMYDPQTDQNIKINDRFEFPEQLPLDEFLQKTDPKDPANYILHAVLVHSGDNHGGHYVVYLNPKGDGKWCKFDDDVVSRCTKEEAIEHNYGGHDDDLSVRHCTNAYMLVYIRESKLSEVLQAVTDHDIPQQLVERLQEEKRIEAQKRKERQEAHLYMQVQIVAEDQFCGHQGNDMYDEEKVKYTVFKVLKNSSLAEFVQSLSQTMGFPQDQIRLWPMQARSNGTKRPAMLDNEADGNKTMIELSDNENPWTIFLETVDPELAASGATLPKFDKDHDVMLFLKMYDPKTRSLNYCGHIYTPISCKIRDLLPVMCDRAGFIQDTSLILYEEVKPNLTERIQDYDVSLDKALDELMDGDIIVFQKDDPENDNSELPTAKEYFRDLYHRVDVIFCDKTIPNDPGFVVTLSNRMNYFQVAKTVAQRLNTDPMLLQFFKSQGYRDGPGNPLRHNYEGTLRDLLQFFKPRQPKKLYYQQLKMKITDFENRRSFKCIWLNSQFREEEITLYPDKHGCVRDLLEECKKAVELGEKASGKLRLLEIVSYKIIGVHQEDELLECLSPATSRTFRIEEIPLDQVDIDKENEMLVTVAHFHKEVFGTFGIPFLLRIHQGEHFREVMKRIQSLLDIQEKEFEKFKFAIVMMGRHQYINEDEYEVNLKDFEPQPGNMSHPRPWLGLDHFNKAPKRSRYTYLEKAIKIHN
USP7, sequence (Q93009 whole entry): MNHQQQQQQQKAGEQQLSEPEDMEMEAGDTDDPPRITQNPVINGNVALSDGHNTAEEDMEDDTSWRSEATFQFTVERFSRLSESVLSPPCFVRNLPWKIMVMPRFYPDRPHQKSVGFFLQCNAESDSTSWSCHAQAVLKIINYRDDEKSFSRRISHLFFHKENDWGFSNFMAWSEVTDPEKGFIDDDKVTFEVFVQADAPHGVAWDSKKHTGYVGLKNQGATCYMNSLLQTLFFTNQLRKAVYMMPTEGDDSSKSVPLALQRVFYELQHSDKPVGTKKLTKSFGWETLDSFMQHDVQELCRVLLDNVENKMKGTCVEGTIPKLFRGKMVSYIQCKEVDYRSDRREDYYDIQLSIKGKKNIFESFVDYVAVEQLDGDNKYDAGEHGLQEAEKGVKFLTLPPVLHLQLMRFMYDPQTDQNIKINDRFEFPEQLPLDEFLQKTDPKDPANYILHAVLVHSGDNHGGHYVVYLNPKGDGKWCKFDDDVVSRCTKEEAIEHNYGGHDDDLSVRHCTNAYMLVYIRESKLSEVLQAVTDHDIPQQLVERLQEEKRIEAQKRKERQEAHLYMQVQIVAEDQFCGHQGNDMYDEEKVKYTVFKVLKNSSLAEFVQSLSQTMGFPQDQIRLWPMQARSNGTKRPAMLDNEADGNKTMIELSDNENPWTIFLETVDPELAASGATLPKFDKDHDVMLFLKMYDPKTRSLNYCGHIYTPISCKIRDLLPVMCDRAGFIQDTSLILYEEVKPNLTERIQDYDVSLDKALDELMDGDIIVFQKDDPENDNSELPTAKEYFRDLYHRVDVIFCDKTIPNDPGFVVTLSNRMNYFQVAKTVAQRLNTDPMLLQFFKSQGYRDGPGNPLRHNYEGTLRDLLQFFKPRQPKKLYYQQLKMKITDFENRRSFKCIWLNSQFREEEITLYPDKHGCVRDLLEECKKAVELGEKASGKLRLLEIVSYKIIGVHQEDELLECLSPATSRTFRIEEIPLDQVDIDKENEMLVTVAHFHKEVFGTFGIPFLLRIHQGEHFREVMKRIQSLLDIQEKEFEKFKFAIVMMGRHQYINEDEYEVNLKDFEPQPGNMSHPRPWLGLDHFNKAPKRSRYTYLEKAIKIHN

Turning to `Cc1ccsc1S(=O)(=O)Nc1ccc2nc(NC(=O)C3CCN(C)CC3)sc2c1` [U81], the IC50 on USP7 is above 100 µM. For the same compound, at USP7 CD + UBL 1-5 (setting [1]), the Kd lay in the range of 1 to 100 µM.
In the same order, the values of `CN1CCn2cc(C(=O)Nc3nc4ccc(NS(=O)(=O)c5cccs5)cc4s3)nc2C1` [U99] are above 100 µM and 1 to 100 µM.
In the same order, the values of `CCc1c(-c2ccc(C(=O)NC)cc2)cnc(N)c1-c1ccc(O)cc1` [U11] are 1 to 100 µM and 1 to 100 µM.
In the same order, the values of `CN1CCCn2nc(C(=O)Nc3nc4ccc(NS(=O)(=O)c5cnccn5)cc4s3)cc2C1` [U106] are above 100 µM and above 100 µM.
With `O=C(Nc1nc2ccc(NS(=O)(=O)c3cccs3)cc2s1)c1cc2n(n1)CCCN(C1CC1)C2` [U98], the IC50 at USP7 was 1 to 100 µM. The Kd at USP7 CD + UBL 1-5 (setting [1]) fell in the range of 1 to 100 µM.
Regarding `C[C@H](CC(=O)N1CCC(O)(Cn2cnc3cc(C#CCN)ccc3c2=O)CC1)c1ccccc1` [U29], the IC50 on USP7 is above 100 µM. Further, the Kd at USP7 CD + UBL 1-5 (setting [1]) is below 1 µM.
For `C=CC(=O)N1CCC(C(=O)Nc2nc3ccc(NS(=O)(=O)c4cccs4)cc3s2)C1` (centres unmarked) [U129], in that order: above 100 µM and 1 to 100 µM.
Regarding `Cn1nc2c(=O)n(CC3(O)CCN(C(=O)C[C@H](c4ccccc4)C(F)(F)F)CC3)cnc2c1Br` [U38], the 50% inhibitory concentration (IC50) at USP7 lay within 1 to 100 µM. For the same compound, the Kd at USP7 CD + UBL 1-5 (setting [1]) was 1 to 100 µM.
For `C[C@H](CC(=O)N1CCC(O)(Cn2cnc3cc(NCCN(C)CCCNC(=O)OC(C)(C)C)ccc3c2=O)CC1)c1ccccc1` [U6], at USP7, the 50% inhibitory concentration (IC50) was below 1 µM. For the same compound, the Kd at USP7 CD + UBL 1-5 (setting [2]) and at USP7 CD + UBL 1-5 (setting [1]) was below 1 µM each time.
Consider `NC1CCn2nc(C(=O)Nc3nc4ccc(NS(=O)(=O)c5cccs5)cc4s3)cc2C1` (centres unmarked) [U112], for which the half-maximal inhibitory concentration (IC50) at USP7 is above 100 µM. In addition, the Kd on USP7 CD + UBL 1-5 (setting [1]) lay in the range of 1 to 100 µM.
For `O=C(O)c1ccc(Nc2nc3ccc(NS(=O)(=O)c4cccs4)cc3s2)nn1` [U84], in that order: above 100 µM and 1 to 100 µM.
For `CN1CCCn2nc(C(=O)Nc3nc4ccc(NS(=O)(=O)c5ccncc5)cc4s3)cc2C1` [U109], in that order: above 100 µM and above 100 µM.
In the same order, the values of `CCc1c(-c2ccc(C(=O)NC)cc2)cnc(NC(=O)CN)c1-c1ccc(O)cc1` [U48] are above 100 µM and 1 to 100 µM.
Turning to `Cc1cc(Cl)cc(-c2ccnc3cc(CN4C(=O)CCC4=O)sc23)c1CC1CCN(C(=O)CN)CC1` [U22], the IC50 at USP7 was below 1 µM. The Kd on USP7 CD + UBL 1-5 (setting [1]) is below 1 µM.
`CCc1c(-c2ccc(C(=O)NCCCNC(=O)CCCCCCCCNC(=O)OC(C)(C)C)nc2)cnc(N)c1-c1ccc(O)cc1` [U54]: the IC50 on USP7 is above 100 µM. Moreover, the Kd at USP7 CD + UBL 1-5 (setting [1]) was in the range of 1 to 100 µM.
In the same order, the values of `CN1CCCn2nc(C(=O)Nc3nc4ccc(N(C)S(=O)(=O)c5cccs5)cc4s3)cc2C1` [U111] are above 100 µM and above 100 µM.
In the same order, the values of `NCc1cc(Nc2nc3ccc(NS(=O)(=O)c4cccs4)cc3s2)ncn1` [U83] are above 100 µM and 1 to 100 µM.
As for `CN1CCCn2nc(C(=O)Nc3nc4ccc(NS(=O)(=O)c5cccs5)cc4s3)cc2C1` [U77], the 50% inhibitory concentration (IC50) on USP7 was above 100 µM. Besides, the Kd at USP7 CD + UBL 1-5 (setting [2]) and at USP7 CD + UBL 1-5 (setting [1]) was 1 to 100 µM each time.
`CS(=O)(=O)c1nccc(Nc2nc3ccc(NS(=O)(=O)c4cccs4)cc3s2)n1` [U80]: the IC50 on USP7 was above 100 µM. The Kd on USP7 CD + UBL 1-5 (setting [1]) is 1 to 100 µM.
For the compound `CCc1c(-c2ccc(C(=O)NCCCNC(=O)CCCCCCCNC(=O)OC(C)(C)C)nc2)cnc(N)c1-c1ccc(O)cc1` [U52], on USP7, the IC50 is above 100 µM. The Kd at USP7 CD + UBL 1-5 (setting [1]) fell in the range of 1 to 100 µM.
For `C[C@H](CC(=O)C1CCC(O)(Cn2cnc3cc(C#CCN=[N+]=[N-])ccc3c2=O)CC1)c1ccccc1` (some centres unmarked) [U28], in that order: 1 to 100 µM and below 1 µM.
In the same order, the values of `CN1CCCn2nc(C(=O)Nc3nc4ccc(NS(=O)(=O)c5cn6ccccc6n5)cc4s3)cc2C1` [U110] are above 100 µM and 1 to 100 µM.
`O=C(Nc1nc2ccc(NS(=O)(=O)c3cccs3)cc2s1)N1CCOCC1` [U126]: the IC50 on USP7 is above 100 µM. Moreover, the Kd at USP7 CD + UBL 1-5 (setting [1]) lay within 1 to 100 µM.
For `CN1CCCn2nc(C(=O)Nc3nc4ccc(NS(=O)(=O)c5nnc[nH]5)cc4s3)cc2C1` [U116], in that order: above 100 µM and 1 to 100 µM.
In the same order, the values of `NCCN(c1ccc2nc(NC(=O)c3ccco3)sc2c1)S(=O)(=O)c1cccs1` [U94] are above 100 µM and 1 to 100 µM.
In the same order, the values of `CN1CCCn2nc(C(=O)Nc3nc4ccc(NS(=O)(=O)c5cccnc5)cc4s3)cc2C1` [U103] are above 100 µM and 1 to 100 µM.
For the compound `CCc1c(-c2ccc(OCCN)cc2)cnc(N)c1-c1ccc(O)cc1` [U21], on USP7, the IC50 fell in the range of 1 to 100 µM. In addition, the Kd at USP7 CD + UBL 1-5 (setting [1]) was 1 to 100 µM.
Consider `CCc1c(-c2ccc3n[nH]cc3c2)cnc(CNC(=O)OC(C)C)c1-c1ccc(O)cc1` [U76], for which the IC50 at USP7 is 1 to 100 µM. Further, at USP7 CD + UBL 1-5 (setting [1]), the Kd lay in the range of 1 to 100 µM.
Take `CCc1c(-c2ccc(C(=O)NCCCNC(=O)CCCCCNC(=O)OC(C)(C)C)nc2)cnc(N)c1-c1ccc(O)cc1` [U50]: the IC50 at USP7 fell in the range of 1 to 100 µM. On USP7 CD + UBL 1-5 (setting [1]), the Kd lay within 1 to 100 µM.
Take `C[C@H](CC(=O)N1CCC(O)(Cn2cnc3c(-c4ccc(CNC(=O)OC(C)(C)C)cc4)n(C)nc3c2=O)CC1)c1ccccc1` [U14]: the IC50 at USP7 was below 1 µM. The Kd on USP7 CD + UBL 1-5 (setting [2]) and on USP7 CD + UBL 1-5 (setting [1]) was below 1 µM throughout.
Turning to `CN1CCC(C(=O)Nc2nc3ncc(NS(=O)(=O)c4cccs4)cc3s2)CC1` [U79], the IC50 on USP7 is above 100 µM. Besides, the Kd on USP7 CD + UBL 1-5 (setting [1]) was above 100 µM.
On to `CCc1c(-c2ccc(C(=O)NCCCNC(=O)CCCCC(=O)OC(C)(C)C)nc2)cnc(N)c1-c1ccc(O)cc1` [U49], for which the IC50 at USP7 fell in the range of 1 to 100 µM. For the same compound, at USP7 CD + UBL 1-5 (setting [1]), the Kd was in the range of 1 to 100 µM.
For `CCc1c(-c2ccc(O)cc2)cnc(NCCN=[N+]=[N-])c1-c1ccc(C(=O)NC)nc1` [U71], the 50% inhibitory concentration (IC50) on USP7 is 1 to 100 µM. The Kd at USP7 CD + UBL 1-5 (setting [1]) was below 1 µM.
In the same order, the values of `NCc1ccc(Nc2nc3ccc(NS(=O)(=O)c4cccs4)cc3s2)nc1` [U87] are above 100 µM and 1 to 100 µM.
In the same order, the values of `CN1CCCn2nc(C(=O)Nc3nc4ccc(NS(=O)(=O)c5nn6ccccc6c5Cl)cc4s3)cc2C1` [U121] are above 100 µM and 1 to 100 µM.
As for `Cc1cc(Cl)cc(-c2ccnc3cc(CN4C(=O)CCC4=O)sc23)c1OC1CCNCC1` [U16], at USP7, the IC50 was below 1 µM. In addition, the Kd on USP7 CD + UBL 1-5 (setting [2]) and on USP7 CD + UBL 1-5 (setting [1]) was below 1 µM in each case.
For `CN1CCCn2nc(C(=O)Nc3nc4ccc(S(=O)(=O)NC5CCNC5)cc4s3)cc2C1` (centres unmarked) [U127], the IC50 at USP7 was above 100 µM. In addition, the Kd on USP7 CD + UBL 1-5 (setting [1]) is 1 to 100 µM.
For `C[C@H](CC(=O)N1CCC(O)(Cn2cnc3cc(Cl)ccc3c2=O)CC1)c1ccccc1` [U4], at USP7, the half-inhibitory concentration (IC50) was in the range of 1 to 100 µM. In addition, the Kd at USP7 CD + UBL 1-5 (setting [1]) is 1 to 100 µM.
For the compound `Cc1cc(Cl)cc(-c2ccnc3cc(CN4C(=O)CCC4=O)sc23)c1OC1CCN(CCCNC(=O)OC(C)(C)C)CC1` [U9], the IC50 on USP7 was below 1 µM. Further, the Kd at USP7 CD + UBL 1-5 (setting [2]) and on USP7 CD + UBL 1-5 (setting [1]) was below 1 µM each time.
With `CCc1c(-c2ccc(C(=O)NC)nc2)cnc(NCCN)c1-c1ccc(O)cc1` [U62], the IC50 at USP7 is 1 to 100 µM. For the same compound, the Kd on USP7 CD + UBL 1-5 (setting [1]) is below 1 µM.
For `CN1CCCn2nc(C(=O)Nc3nc4ccc(NS(=O)(=O)c5ccccn5)cc4s3)cc2C1` [U104], in that order: above 100 µM and 1 to 100 µM.
For `CCc1c(-c2ccc3[nH]ncc3c2)cnc(C=O)c1-c1ccc(O)cc1` [U65], in that order: 1 to 100 µM and 1 to 100 µM.

In general, IC50 refers to the concentration at which inhibition is half-maximal.
